The source of these data is patent US20060019907A1, “Guggulsterone: an inhibitor of nuclear factor - kappaB and IkappaBalpha kinase activation and uses thereof” (Research Development Foundation, priority 2004, published 2006).

Experiment [1] has as its system NF-κB. The experiment can be described thus: TNF-induced NF-κB activation by EMSA in A549, Jurkat and KBM-5 cells. Conditions: 50 μM, 4 hours, then 0.1 nM TNF 30 min. In kind it is cell-based, human. As for the experimental part: (§1) NF-κB Activation: To determine NF-κB activation, EMSA was carried out as previously described (Chaturvedi et al., 2000). Briefly, nuclear extracts prepared from cells (2×10^6/ml) treated with TNF were incubated with ^32P-end-labeled 45-mer double-stranded NF-κB oligonucleotide (8 μg of protein with […] of DNA) from the human immunodeficiency virus long terminal repeat, 5′-[…] GGCGTGG-3′ (SEQ ID NO:1) (boldface indicates NF-κB binding sites), for 15 min at 37° C. The DNA-protein complex formed was separated from free oligonucleotide on 6.6% native polyacrylamide gels. A double-stranded mutated oligonucleotide, 5′-[…]-3′ (SEQ ID NO:2), was used to examine the specificity of binding of NF-κB to the DNA. The specificity of binding was also examined by competition with the unlabeled oligonucleotide. For supershift assays, nuclear extracts prepared from TNF-treated cells were incubated with antibodies against either the p50 or the p65 subunit of NF-κB for 30 min at room temperature before the complex was analyzed by EMSA. The dried gels were visualized, and radioactive bands were quantitated using a PHOSPHORIMAGER™ (Molecular Dynamics, Sunnyvale, Calif.) using IMAGEQUANT™ software.
On the technique in general: A gel shift assay detects complexes by their altered migration in electrophoresis.

The target in experiment [2] is T1, NF-κB proteins (Homo sapiens, UniProt P19838+Q04206).
T1 construct: endogenous in cells; nuclear extract
T1 sequence (Q04206 whole entry): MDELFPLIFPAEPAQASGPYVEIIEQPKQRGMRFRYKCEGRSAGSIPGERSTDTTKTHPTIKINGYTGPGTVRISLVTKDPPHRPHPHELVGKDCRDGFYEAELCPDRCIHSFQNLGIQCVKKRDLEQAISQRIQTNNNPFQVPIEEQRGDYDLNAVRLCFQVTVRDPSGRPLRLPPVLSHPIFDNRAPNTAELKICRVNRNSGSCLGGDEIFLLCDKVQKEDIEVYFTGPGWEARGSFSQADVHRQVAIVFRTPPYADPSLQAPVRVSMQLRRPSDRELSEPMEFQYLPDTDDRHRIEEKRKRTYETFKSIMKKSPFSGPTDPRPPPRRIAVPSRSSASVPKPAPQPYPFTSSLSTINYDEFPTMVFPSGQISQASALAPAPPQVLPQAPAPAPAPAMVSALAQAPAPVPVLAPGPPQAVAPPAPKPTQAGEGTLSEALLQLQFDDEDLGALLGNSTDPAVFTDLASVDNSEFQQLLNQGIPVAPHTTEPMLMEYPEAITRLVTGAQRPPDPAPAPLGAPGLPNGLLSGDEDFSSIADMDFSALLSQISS
T1 sequence (P19838 1-433 limits assumed): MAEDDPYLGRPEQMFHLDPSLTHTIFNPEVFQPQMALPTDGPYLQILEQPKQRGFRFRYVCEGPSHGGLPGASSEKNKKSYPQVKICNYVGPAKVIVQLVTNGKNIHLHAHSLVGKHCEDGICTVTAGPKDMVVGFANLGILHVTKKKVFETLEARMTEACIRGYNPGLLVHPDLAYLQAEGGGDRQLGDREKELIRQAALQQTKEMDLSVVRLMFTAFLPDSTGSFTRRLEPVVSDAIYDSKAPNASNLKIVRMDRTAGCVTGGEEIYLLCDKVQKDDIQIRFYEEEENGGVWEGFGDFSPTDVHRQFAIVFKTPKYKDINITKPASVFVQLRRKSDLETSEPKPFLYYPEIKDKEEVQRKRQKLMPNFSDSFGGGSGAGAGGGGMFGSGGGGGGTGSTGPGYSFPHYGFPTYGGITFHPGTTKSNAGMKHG
The experiment can be described thus: DNA binding of NF-κB in nuclear extracts incubated with guggulsterone (EMSA). The settings on record: nuclear extracts from TNF-activated H1299 cells treated with guggulsterone 4 hours at room temperature. In kind it is biochemical. As for the experimental part: as §1, with “software. […]” for “software.”

In experiment [3] the test system is COX2 promoter. The experiment can be described thus: COX-2 promoter-dependent reporter luciferase gene expression. In kind it is cell-based, human. The settings on record: 0.1 nM TNF 24 hours. As for the experimental part:
COX-2 Promoter-dependent Reporter Luciferase Gene Expression: COX-2 promoter activity was examined as described elsewhere (Shishodia et al., 2003). To further determine the effect of guggulsterone on COX-2 promoter, […] cells were seeded at a concentration of 1.5×10^5 cells per well in six-well plates. After overnight culture, the cells in each well were transfected with 2 μg DNA consisting of COX-2 promoter-luciferase reporter plasmid, along with 6 μl of LIPOFECTAMINETM 2000 (Life Technologies, Inc.) according to the manufacturer's protocol. The COX-2 promoter (-375 to +59), amplified from human genomic DNA by using the primers [NT] (sense) (SEQ ID NO:3) and [NT] (antisense) (SEQ ID NO:4), was provided by Dr. Xiao-Chun Xu (M.D. Anderson Cancer Center). After a 6 hour exposure to the transfection mixture, the cells were incubated in medium containing guggulsterone for 12 hours. The cells were exposed to TNF (0.1 nM) for 24 hours and then harvested. Luciferase activity is measured by using the Promega luciferase assay system according to the manufacturer's protocol and detected by using […] 2010 (Analytical Luminescence Laboratory, San Diego, Calif.).

Experiment [4] relates to tumor cells. The experiment can be described thus: Antiproliferative effects against tumor cells (MTT). In kind it is cell-based, human. As for the experimental part: Cytotoxicity Assay: Cytotoxicity was assayed by the modified tetrazolium salt 3-(4-5-dimethylthiozol-2-yl)2-5-diphenyl-tetrazolium bromide (MTT) assay (Bharti et al., 2003). […] Thereafter, 0.025 ml of MTT solution (5 mg/ml in PBS) was added to each well. After a 2 hour incubation at 37° C., 0.1 ml of the extraction buffer (20% SDS, 50% dimethylformamide) was added. After an overnight incubation at 37° C., the optical densities at 570 nm were measured using a 96-well multiscanner autoreader (Dynatech MR5000), with the extraction buffer as blank. The percent cytotoxicity was determined as follows: (1−(A570 of test sample)/(A570 of control sample)×100%.
Cytotoxicity assay. The cytotoxic effects of guggulsterone was determined by the MTT uptake method. Briefly, 5000 cells were incubated with guggulsterone in triplicate in a 96-well plate at 37° C. MTT solution was then added to each well. After a 2-h incubation at 37° C., extraction buffer (20% SDS, 50% dimethylformamide) was added, the cells were incubated overnight at 37° C., and the OD was then measured at 570 nm using a 96-well multiscanner (Dynex Technologies, MRX Revelation, Chantilly, Va.).

The subject of experiment [5] is RAW 264.7 cells. The experiment in a line: Osteoclast differentiation assay, RANKL-induced. Conditions: RANKL 5 nM. It is filed as cell-based, mouse. As for the experimental part: Osteoclast differentiation assay: […] cells were cultured in 24-well dishes at a density of 1×10^4 cells per well and were allowed to adhere overnight. Medium was then replaced and the cells were treated with 5 nM (˜100 ng/ml) RANKL. At different days, cultures were stained for TRAP expression using an acid phosphatase kit, and the total number of TRAP-positive multinucleated osteoclasts (>3 nuclei) per well were counted.
Osteoclast differentiation assay. RAW 234.7 cells were cultured in 24-well dishes at a density of 1×10^4 cells per well and were allowed to adhere overnight. Medium was then replaced and the cells were treated with 5 nM (100 ng/ml) RANKL. At day 5, cultures were stained for TRAP expression as described (Shevde et al., 2000) using an acid phosphatase kit, and the total number of TRAP-positive multinucleated osteoclasts (3 nuclei) per well were counted.

Experiment [6] deals with IκBα. The experiment in a line: RANKL-induced IκBα phosphorylation and degradation, Western blot. In kind it is cell-based, mouse. Conditions: RAW 264.7. As for the experimental part: Western blot analysis. To determine the levels of protein expression in the cytoplasm or nucleus, extracts were prepared (Majumder and Aggarwal, 2001) and fractionated by SDS-polyacrylamide gel electrophoresis (PAGE). After electrophoresis, the proteins were electrotransferred to nitrocellulose membranes, blotted with each antibody, and detected by ECL regent (Amersham, Piscataway, N.J.). The bands obtained were quantitated using NIH imaging software (NIH, Bethesda, Md.).

In experiment [7] the test system is bile salt export pump. Conditions: Cui et al., 2003; cited from earlier work.
[8] abbreviates: 50 μM, 4 h pre-incubation, 10 nM RANKL.

In the case of `CC=C1C(=O)C[C@H]2[C@@H]3CCC4=CC(=O)CC[C@]4(C)[C@H]3CC[C@]12C` [guggulsterone, 4,17(20)-pregnadiene-3,16-dione], the “TNF-induced NF-κB activation in A549, Jurkat and KBM-5 cells” value in experiment [1] is given as “completely inhibited this activation”. In addition, the “DNA-binding ability of NF-κB proteins” value in experiment [2] is given as “did not modify the DNA-binding ability of NF-κB proteins”. Further, in experiment [3], the “TNF-induced COX2 promoter activity” value was “abolished the COX2 promoter activity in a dose-dependent manner”. For the same compound, the “proliferation of head and neck, lung, melanoma, multiple myeloma, leukemia and breast cancer cells” value in experiment [4] (2000 cells in 0.1 ml, six days, MTT) is “suppressed the proliferation of a wide variety of cells”. Moreover, the “proliferation of human leukemia, head and neck carcinoma, multiple myeloma, lung carcinoma, melanoma, breast carcinoma and ovarian cancer cell lines” value in experiment [4] (Example 2) is on record as “inhibits the proliferation”. Further, in experiment [4] (STI-resistant K562, dexamethasone resistant MM1, doxorubicin resistant breast cancer cell lines), the “proliferation of drug resistant cancer cells” value is “inhibited the proliferation of drug resistant cancer cells”. Besides, the “number of RANKL-induced osteoclasts” value in experiment [5] (5 days, TRAP) was “the number of osteoclasts decreased with increasing concentration of GS”. In experiment [5] (GS 5 μM, 5 days), the “RANKL-induced osteoclastogenesis, GS added 24 h after RANKL” value is recorded as “inhibited osteoclastogenesis even when the cells were exposed 24 h after the RANKL treatment” and the “RANKL-induced osteoclastogenesis, GS added 3 days after RANKL” value is reported as “the inhibitory effect decreased significantly”. Besides, the “RANKL-induced osteoclastogenesis (Example 1)” value in experiment [5] (guggulsterone 5 μM, TRAP staining) was “inhibits RANKL-induced NF-κB activation and osteoclastogenesis”. Moreover, the “phosphorylation of IκBα by GS alone” value in experiment [6] is “did not result in phosphorylation of IκBα”. For the same compound, in experiment [6] (setting [8]), the “RANKL-induced IκBα degradation” value is “suppressed RANKL-induced IκBα degradation” and the “RANKL-induced phosphorylation of IκBα” value was “eliminated the RANKL-induced phosphorylation”. For the same compound, in experiment [6] (GS treatment), the “expression of IκBα (IκBα to β-actin ratio)” value is “down-regulates the expression of IκBα”. In addition, in experiment [7], the “transcription of the bile salt export pump” value is recorded as “enhances transcription of the bile salt export pump”.
